Assay results reported in patent US10919896B2, “Preparation and uses of pyrimidinone derivatives” (Cancer Research Technology Limited, priority 2016, dated 2021).

How the values were obtained:
Cdc7/ASK [1] = target: T1, Cdc7/ASK (Homo sapiens, UniProt O00311); experiment: Cdc7 Biochemical Assay Method 1: 384 well ELISA, whole protein substrate MCM2, antibody against Phospho MCM2 (S53); design: purchased; details: 2 μM ATP, read-out: Biochemical Method 1 (pIC50) (converted)
How it was run: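 MCM2 protein substrate was coated on nickel-chelate plates, then Cdc7/ASK was added with 2 μM ATP in 50 mM Tris-HCl pH 8.5, 10 mM MgCl2, 1 mM DTT, 4% DMSO, 90 min at room temperature. Phospho-MCM2 (S53) was detected by ELISA with an AP secondary and PNPP absorbance. IC50 was derived from % inhibition versus no-compound and no-enzyme controls.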

Cdc7/ASK [2] = target: T1, Cdc7/ASK; experiment: Cdc7 Biochemical Assay Method 2: 384 well mobility shift assay (EZ Reader II), MCM2 peptide substrate; design: purchased; details: 12.5 μM ATP, read-out: Biochemical Method 2 (pIC50) (converted)
Protocol: This protocol describes a method for assaying Cdc7/ASK for activity. The assay is a 384 well mobility shift assay (MSA) run on the EZ Reader II microfluidics plate reader (Caliper LifeSciences), utilising a peptide substrate based on the MCM2 sequence. The assay technology is based on the change in mobility between the peptide substrate and the phosphorylated product. A 10 nL volume of the reaction mixture is sipped onto the microfluidic chip where the substrate and product are separated by electrophoresis and detected via laser-induced fluorescence (488 nm LED). The reaction can be monitored in real-time for kinetic experiments or as an end-point for IC50 determinations. The % conversion of substrate is calculated from peak heights of product (P) and substrate (S) peptides (% conversion=P/(P+S)*100).
• 10× Assay Buffer: 200 mM HEPES pH 8, 100 mM MgCl2, 0.1% v/v Triton X-100 and 15 mM DTT. Prepare fresh buffer from 1 M HEPES pH 8, 1 M MgCl2, 1 M DTT and 10% Triton x-100 stocks for each experiment. • Cdc7/ASK is purchased from commercial suppliers and used in the assay at a final assay concentration of 0.847 ng/μL or 9.2 nM. • MCM2 peptide is purchased from commercial suppliers and used in the assay at a final assay concentration of 2.5 μM. • ATP used in the assay at a final assay concentration of 12.5 μM. Methods • 1. Prepare intermediate (daughter) compound plate by transferring 2 μL of compound from the mother plate to 18 μL of 33.3% DMSO in a clear polypropylene plate. • 2. Dry-spot 1 μL of compound from the intermediate compound plate to empty assay plate. • 3. Add 5 μL of 1.694 ng/μL CDC7/ASK working solution to ‘test’ and ‘control’ wells or […] of 2× Assay Buffer to ‘blank’ wells. • 4. Add 4 μL 2.5 μM peptide/12.5 μM ATP working solution to all wells. • 5. Incubate at 37° C. for 1 hour then remove from the incubator and leave for a further 1 hour at room temperature. • 6. Place plate into an EZReader II to read.
Percentage inhibition values were calculated from % of substrate conversion values, using the no compound (DMSO) and no enzyme control values as 0% and 100% inhibition, respectively. IC50 determination was performed with ExcelFit software (IDBS) using curve fit 205. Z′ factors were determined for each plate tested and were all above 0.5.

T1 sequence (O00311 whole entry): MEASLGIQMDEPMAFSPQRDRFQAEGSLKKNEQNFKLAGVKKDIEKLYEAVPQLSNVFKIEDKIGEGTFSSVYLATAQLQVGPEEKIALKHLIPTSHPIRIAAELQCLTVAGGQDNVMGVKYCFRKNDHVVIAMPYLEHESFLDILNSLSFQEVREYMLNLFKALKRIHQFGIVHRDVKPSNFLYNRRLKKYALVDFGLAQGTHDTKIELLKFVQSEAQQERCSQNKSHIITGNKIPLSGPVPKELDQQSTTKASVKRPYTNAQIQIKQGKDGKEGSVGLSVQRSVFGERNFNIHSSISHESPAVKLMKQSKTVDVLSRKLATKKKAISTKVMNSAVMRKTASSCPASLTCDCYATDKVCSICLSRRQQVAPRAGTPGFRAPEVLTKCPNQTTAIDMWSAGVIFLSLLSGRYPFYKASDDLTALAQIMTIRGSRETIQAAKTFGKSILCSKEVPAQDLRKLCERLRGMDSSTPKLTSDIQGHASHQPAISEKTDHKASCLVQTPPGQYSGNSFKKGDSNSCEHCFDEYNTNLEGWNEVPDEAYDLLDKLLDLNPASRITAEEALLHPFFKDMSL
T1 sequence (Q9UBU7 whole entry partner): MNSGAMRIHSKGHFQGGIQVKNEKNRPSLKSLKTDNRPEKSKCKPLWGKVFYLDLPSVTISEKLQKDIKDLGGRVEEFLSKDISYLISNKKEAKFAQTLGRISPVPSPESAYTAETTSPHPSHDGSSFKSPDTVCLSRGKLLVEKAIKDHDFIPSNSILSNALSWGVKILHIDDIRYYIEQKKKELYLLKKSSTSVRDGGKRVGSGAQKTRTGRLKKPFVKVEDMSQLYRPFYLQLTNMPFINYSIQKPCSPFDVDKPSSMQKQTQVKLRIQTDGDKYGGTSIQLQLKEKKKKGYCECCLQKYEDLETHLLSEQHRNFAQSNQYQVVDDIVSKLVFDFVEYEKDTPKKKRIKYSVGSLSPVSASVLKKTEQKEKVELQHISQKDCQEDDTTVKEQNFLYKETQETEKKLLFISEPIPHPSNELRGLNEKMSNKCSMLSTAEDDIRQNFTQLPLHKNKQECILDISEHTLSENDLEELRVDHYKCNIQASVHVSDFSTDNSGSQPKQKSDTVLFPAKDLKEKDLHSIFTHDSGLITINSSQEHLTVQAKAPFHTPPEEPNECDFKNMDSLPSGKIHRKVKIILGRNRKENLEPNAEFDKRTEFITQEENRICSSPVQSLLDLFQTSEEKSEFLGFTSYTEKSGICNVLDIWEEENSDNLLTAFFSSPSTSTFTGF

Structure (SMILES) | IC50 (Cdc7/ASK [1]) [nM] | IC50 (Cdc7/ASK [2]) [nM]
O=c1[nH]c(-c2ccnc(F)c2)nc(N2CCCC(F)(F)C2)c1Cl [Compound 90, 5-chloro-4-(3,3-difluoro-1-piperidyl)-2-(2-fluoro-4-pyridyl)-1H-pyrimidin-6-one] | 0.851 | 
C[C@H]1CN(c2nc(-c3ccncc3)[nH]c(=O)c2Cl)CCN1 [Compound 130] | 2.57 | 
O=c1[nH]c(-c2ccncc2)nc(N2CCN[C@H](C(F)(F)F)C2)c1Cl [Compound 139] | 9.55 | 
O=c1[nH]c(-c2ccncc2)nc(N2CCN(CC(F)F)CC2)c1Cl [Compound 147] | 4.27 | 
CC(C)[C@H]1CN(c2nc(-c3ccnc(F)c3)[nH]c(=O)c2Cl)CCN1 [Compound 170] | 1.1 | 1.17
O=c1[nH]c(-c2ccncc2)nc(N2CCN[C@@H](C(F)(F)F)C2)c1Cl [Compound 180] | 1.45 | 
CC(C)(C)[C@H]1CN(c2nc(-c3ccncc3)[nH]c(=O)c2F)CCN1 [Compound 185] | 0.776 | 0.776
O=c1[nH]c(-c2ccncc2)nc(N2CCCOCC2)c1Cl [Compound 186] | 3.09 | 3.89
CC(C)[C@H]1CN(c2nc(-c3ccncc3)[nH]c(=O)c2F)CCN1 [Compound 308] | 0.794 | 0.912
O=c1[nH]c(-c2ccnc(F)c2)nc(N2CCN[C@@H](C(F)(F)F)C2)c1Cl [Compound 314] | 1.12 | 0.575
O=c1[nH]c(-c2ccnc(F)c2)nc(N2CCOCC2)c1Cl [Compound 316] | 1.32 | 
N[C@H]1CCCN(c2nc(-c3ccnc(F)c3)[nH]c(=O)c2Cl)C1 [Compound 317] |  | 1.02
N[C@@H]1CCCN(c2nc(-c3ccnc(F)c3)[nH]c(=O)c2Cl)C1 [Compound 319] |  | 1.51
C[C@@H]1CNCCN1c1nc(-c2ccnc(F)c2)[nH]c(=O)c1Cl [Compound 323] |  | 0.575
O=c1[nH]c(-c2ccnc(F)c2)nc(N2CCNCC2)c1Cl [Compound 360] | 1.51 | 
NC[C@H]1CCCN(c2nc(-c3ccnc(F)c3)[nH]c(=O)c2Cl)C1 [Compound 362] | 1.66 | 0.741
NC[C@@H]1CCCN(c2nc(-c3ccnc(F)c3)[nH]c(=O)c2Cl)C1 [Compound 363] | 4.68 | 1.78
C[C@@H]1CNCCN1c1nc(-c2ccncc2)[nH]c(=O)c1Cl [Compound 364] | 0.389 | 0.501
